Each structure is given as a SMILES string.

Broadly, the logP is the decadic logarithm of the partition coefficient of the neutral form, usually between octanol and water.

For `O=C(Nc1ccccc1Cl)c1ccccc1O`, the logP is 4.35. With `O=C(Nc1ccc(F)cc1)c1cc(Cl)cc(Cl)c1O` the figure was 4.76. Compound `O=C(Nc1ccc(Cl)cc1[N+](=O)[O-])c1cc(Br)cc(Br)c1O` yielded a logP of 5.05. With `O=C(Nc1ccc(Cl)cc1Cl)c1ccccc1O` the figure was 5.49. In turn, `O=C(Nc1ccc(Cl)cc1[N+](=O)[O-])c1ccccc1O` returned a logP of 4.09. With `O=C(Nc1ccccc1)c1cc(Cl)ccc1O` the figure was 4.05; with `Cc1cc(Cl)ccc1NC(=O)c1ccccc1O`, 5.18; with `O=C(Nc1ccc(Br)cc1)c1ccccc1O`, 4.51. For `O=C(Nc1ccccc1)c1cc([N+](=O)[O-])ccc1O`, the logP was 3.66. With `Cc1cc(Br)ccc1NC(=O)c1cc(F)ccc1O` the figure was 5.15.

For the compound `Cc1cc([N+](=O)[O-])ccc1NC(=O)c1cc(Cl)cc(Cl)c1O`, the logP is 4.51.

In turn, `O=C(Nc1ccc(Cl)cc1)c1cc(Br)ccc1O` showed a logP of 5.02. With `O=C(Nc1ccccc1)c1cc(Cl)cc(Cl)c1O` the figure was 4.01; with `O=C(Nc1ccc(F)cc1F)c1cc(Br)cc(Br)c1O`, 4.99.

The compound `O=C(Nc1ccccc1[N+](=O)[O-])c1ccccc1O` showed a logP of 2.87. The result for `O=C(Nc1ccc(Cl)cc1)c1cc(Cl)cc(Cl)c1O` reads 5.15; that for `Cc1ccccc1NC(=O)c1cc(Cl)ccc1O`, 4.21.

The compound `O=C(Nc1ccc(Cl)cc1[N+](=O)[O-])c1cc(Cl)cc(Cl)c1O` registered a logP of 5.08.

As for `O=C(Nc1ccc(Cl)cc1)c1ccccc1O`, the logP was 4.5.

Turning to `O=C(Nc1ccc(F)cc1F)c1cc(Cl)cc(Cl)c1O`, the logP was 4.55. With `Cc1cc(Cl)ccc1NC(=O)c1cc(F)ccc1O` the figure was 4.89.

Source of the values: the OPERA property sets (Mansouri et al. 2018).
